According to patent publication US9062014B2, “Crystalline forms of (R)-5-[3-chloro-4-(2,3-dihydroxy-propoxy)-benz[Z]ylidene]-2-([Z]-propylimino)-3-0-tolyl-thiazolidin-4-one” (ACTELION PHARMACEUTICALS LTD., priority 2008, dated 2015):

Experiment: Hygroscopicity by gravimetric vapour sorption (GVS)
Type: physicochemical
Details: 25° C.; for Hygroscopicity classification according to the European Pharmacopea Technical Guide (1999 edition): mass change between 40% and 80% relative humidity, first adsorption scan; for mass gain: mass change between 40% relative humidity and 80% relative humidity in the first adsorption scan
Protocol: Gravimetric Vapour Sorption (GVS)
Sorption isotherms are obtained using a Hiden IGASorp moisture sorption analyser, controlled by CFRSorp software. The sample temperature is maintained at 25° C. by a Huber re-circulating water bath. The humidity is controlled by mixing streams of dry and wet nitrogen, with a total flow rate of 250 ml·min^−1. The relative humidity is measured by a calibrated Vaisala RH probe (dynamic range of 0-95% RH), located near the sample. The weight change of the sample as a function of % RH is constantly monitored by the microbalance (accuracy±0.001 mg).
Typically 10-20 mg of sample is placed in a tared mesh stainless steel basket under ambient conditions. The sample is loaded and unloaded at 40% RH and 25° C. (typical room conditions).
A moisture sorption isotherm is performed as outlined below (2 scans giving 1 complete cycle). The standard isotherm is performed at 25° C. at 10% RH intervals over a 0-90% RH range.
The software uses a least squares minimisation procedure together with a model of the mass relaxation, to predict an asymptotic value. The measured mass relaxation value must be within 5% of that predicted by the software, before the next % RH value is selected. The minimum equilibration time is set to 1 hour and the maximum to 4 hours.
Classification is done according to the European Pharmacopea Technical Guide (1999 edition) (e.g. slightly hygroscopic: increase in mass is less than 2% and equal to or greater than 0.2% mass/mass; hygroscopic: increase in mass is less than 15% and equal to or greater than 2% mass/mass). The mass change between 40% relative humidity and 80% relative humidity in the first adsorption scan is considered.

mass gain [%] | Compound | Hygroscopicity classification according to the European Pharmacopea Technical Guide (1999 edition)
< 0.2 | CCC/N=C1\S/C(=C\c2ccc(OC[C@H](O)CO)c(Cl)c2)C(=O)N1c1ccccc1C [Form A, (R)-5-[3-chloro-4-(2,3-dihydroxy-propoxy)-benz[Z]ylidene]-2-([Z]-propylimino)-3-o-tolyl-thiazolidin-4-one] | Non-hygroscopic
0.2 | CCC/N=C1\S/C(=C\c2ccc(OC[C@H](O)CO)c(Cl)c2)C(=O)N1c1ccccc1C [Form II, (R)-5-[3-chloro-4-(2,3-dihydroxy-propoxy)-benz[Z]ylidene]-2-([Z]-propylimino)-3-o-tolyl-thiazolidin-4-one] | Slightly hygroscopic (slightly hygroscopic: increase in mass is less than 2% and equal to or greater than 0.2% mass/mass)
2.1 | CCC/N=C1\S/C(=C\c2ccc(OC[C@H](O)CO)c(Cl)c2)C(=O)N1c1ccccc1C [Amorphous, (R)-5-[3-chloro-4-(2,3-dihydroxy-propoxy)-benz[Z]ylidene]-2-([Z]-propylimino)-3-o-tolyl-thiazolidin-4-one] | Hygroscopic (hygroscopic: increase in mass is less than 15% and equal to or greater than 2% mass/mass)
< 0.2 | CCC/N=C1\S/C(=C\c2ccc(OC[C@H](O)CO)c(Cl)c2)C(=O)N1c1ccccc1C [Form C, (R)-5-[3-chloro-4-(2,3-dihydroxy-propoxy)-benz[Z]ylidene]-2-([Z]-propylimino)-3-o-tolyl-thiazolidin-4-one] | Non-hygroscopic
